Measured values: US20030087014A1, “Enhanced thermal inactivation of pathogen in a nutriment by acidulant” (Mionix Corp., priority 2001, published 2003)

System: human skin
Assay: Contact of acidic solution with human skin and nose
Conditions: solution with a pH of less than 0.5

Structure (SMILES): O=S(=O)(O)O [sulfuric acid]
- Irritation of hand put into the solution: an irritation would occur within a relatively short span of time
